Consider one molecule from article PMC12055592, “Post-symptomatic NLRP3 inhibition rescues cognitive impairment and mitigates amyloid and tau driven neurodegeneration” (Npj Dementia, 2025).

The subject of data set [1] is 5XFAD/Rubicon KO mice. As to the kind of experiment: Sucrose preference test in 5XFAD/Rubicon KO mice. Type of data set: in vivo, mouse. The protocol: (§1) 5XFAD/Rubicon KO mice received vehicle (0.5% w/v methylcellulose/0.1% w/v Tween® 80 in water) or VEN-02XX (0.01, 1, or 20 mg/kg) every day by oral gastric gavage for 9 weeks.
Basal preference to sucrose was first assessed on all enrolled mice. Individually housed mice were acclimated to the testing room for 48 h and to the two-bottle setup, where both bottles contained water, for 3 days. A 2% sucrose solution replaced the water in one bottle, and water consumption was measured for 4 consecutive days, while rotating the position of the sucrose-containing bottle. At the end of the testing period, both bottles were measured, and sucrose preference was calculated by dividing the intake from the sucrose bottle by the intake from both bottles, expressed as the percentage of sucrose preference. Preference to sucrose was re-assessed at 6- and 9-weeks following dosing with VEN-02XX. The test was performed as described above, with one bottle switched for 3% sucrose water. As before, bottles were rotated daily to reduce bias and leakage concerns, and the consumption was monitored for 4 days.

Data set [2] deals with 5XFAD/Rubicon KO mice. The experiment in a line: Immunoblotting of NeuN and MAP2 in cortical and hippocampal lysates of 5XFAD/Rubicon KO mice. Type of data set: in vivo, mouse. The note with it: 20 mg/kg vs vehicle, not statistically significant. The protocol:
as §1
Ten ug of protein was separated by gel electrophoresis (one gel loaded with cortex samples and one gel loaded with hippocampus samples), on a 4–15% gradient Tris-glycine gel and transferred to PVDF membranes using the TransBlot Turbo semi-dry transfer system (Bio-Rad Laboratories, Hercules, CA). The membranes were blocked in Tris-buffered saline, 0.1% Tween 20 (1X TBST) with 5% milk for 1 h at room temperature followed by overnight incubation at 4 °C with primary antibodies (1:1000 rabbit anti-NeuN [EMD Millipore, Burlington, MA] and 1:10,000 rabbit anti-Vinculin [Cell Signaling, Boston, MA]) diluted in TBST with 1% milk. For the complete list of antibodies please reference Supplementary Table 2. The next day, membranes were washed three times with 1XTBST for 10 min before incubation with HRP-conjugated secondary antibody (1:500 goat anti-rabbit [Cedarlane Labs, Burlington, ON]) for 90 min at room temperature. Membranes were then washed three times with 1XTBST for 10 min and developed with Pierce ECL western blotting substrate (Thermo Fisher Scientific) and visualized on a ChemiDoc imaging system (Bio-Rad Laboratories). […]
In general terms: A western blot detects proteins with antibodies after separation by electrophoresis.

Another data set concerns the target human NLRP3 (Homo sapiens, UniProt Q96P20). As to the kind of experiment: SPR analysis of interaction with human NLRP3. Format: binding. How it is done: VEN-02XX was profiled in vitro to confirm specific binding to human NLRP3 as well as activity in various cellular assays.
The human NLRP3 protein was immobilized onto a nickel-NTA surface (Xantec NiHC1500M). Assay was run in 25 mM HEPES pH 7.5, 150 mM NaCl, 5 mM MgCl2, 0.5 mM TCEP, 0.5 mM ADP, 0.05% Tween-20 and 1% DMSO at 25 °C. Single-cycle method was used, and compound was injected over surface with a contact time of 120 s on and 600 s off by Biocore 8 K machine (Cytiva). A 5-points solvent correction curve was run pre and post run to correct for refractive index of DMSO. Data was then analyzed using the Biacore evaluation software to report binding kinetic parameters.
Background: In SPR one partner is held on a chip, and binding of the other changes the refractive index at the surface.

Data set [3] is described as follows: Mouse pharmacokinetic study, 7 days oral dosing, blood. Particulars: WT mice. Type of data set: in vivo. How it is done:
Male C57Bl/6 mice (weight 20–30 g, age 6–8 weeks old) were obtained from Charles River Laboratories Canada, and acclimated for 5 days before the study. Three animals were dosed by oral gavage during 7 days with 20 mg/kg of VEN-02XX suspended in 0.5% w/v methylcellulose/0.2% w/v Tween 80, at a dose volume of 10 mL/kg. Food and water were available ad libitum to all animals. On day 7, serial blood samples were collected from a tail snip at 0.25, 0.5, 1, 2, 4, 6, and 24 h post-dose, and […] of blood was added to a micro tube racked system pre-filled with […] of 10 mM sodium citrate buffer (final blood/buffer ratio 1:3, or dilution factor of 4). The plate was stored at −20 °C until LC-MS/MS analysis.
Concentrations of VEN-02XX in plasma and brain were determined by a LC-MS/MS assay. The plasma samples were thawed at room temperature and 20 μL aliquot of each sample was added to a 1.2 mL deep 96-well plate containing 20 µL ACN. The standard curve was prepared by making different dilutions in ACN. A 20 µL standard solution at each concentration was added into a 96-deepwell plate, followed by addition of 20 µL blank plasma or brain homogenate. Then, 200 μL of an internal standard mixture (5 ng/mL Glyburide and Loperamide in ACN) was added to each sample. The plates were vortexed and centrifuged at 4000 rpm for 10 min at 4 °C; 70 μL of the supernatant was diluted with 140 μL of water, and 10 μL of the solution was injected onto an analytical column. A Shimadzu UPLC system coupled with a SCIEX 4500 mass spectrometer (AB Sciex, Foster City, CA) was used for sample analysis. The mobile phase A was 0.1% FA in water and mobile phase B was 0.1% FA in 1/5 IPA/ACN. The gradient started at 10% B, held for 0.2 min and increased to 95% B in 1.3 min, maintained at 95% B for 0.7 min, and then decreased to 10% B within 0.01 min. The total flow rate was 0.5 mL/min, and samples were injected onto an Acquity UPLC BEH C18 (2.1 mm × 5 cm, 2.3 u) analytical column with a total run time of 2.5 min. Data were acquired using multiple reactions monitoring (MRM) in positive ion electrospray mode with an operating source temperature of 400 °C. Two transitions were monitored for VEN-02XX and the more sensitive transition with less interference (397.1 –> 270.1) was used for quantification.
Pharmacokinetic parameters were determined by non-compartmental analysis using WinNonLin software (Phoenix^TM, version 8.3), and the following parameters were calculated from the plasma concentrations versus time data: T1/2, Cmax, Tmax, AUCinf, AUClast. When appropriate, the brain Kp was calculated as AUClast(brain)/AUClast(plasma). Free brain partition coefficient (Kpuu) was calculated using the free fraction in plasma and brain measured in a high throughput equilibrium dialysis assay.

Where [4] appears, read: male, C57Bl/6, mouse, whole blood, blood, 20 mg/kg PO QD for seven days.

The Kd is the free concentration of one partner at which half of the binding sites on the other are occupied at equilibrium, for simple one-to-one binding. High values mean a looser complex, low ones a tighter complex. What is called AUC(0-inf) is total exposure, with the tail of the curve extrapolated. A higher AUC(0-inf) goes with high exposure. The term Cmax denotes the peak of the concentration-time curve. For orientation: Tmax means the time from dosing to the highest level. The half-life is the time in which the quantity being followed falls by half. Low readings indicate rapid decline, high ones slow decline.

human NLRP3, sequence (Q96P20 whole entry): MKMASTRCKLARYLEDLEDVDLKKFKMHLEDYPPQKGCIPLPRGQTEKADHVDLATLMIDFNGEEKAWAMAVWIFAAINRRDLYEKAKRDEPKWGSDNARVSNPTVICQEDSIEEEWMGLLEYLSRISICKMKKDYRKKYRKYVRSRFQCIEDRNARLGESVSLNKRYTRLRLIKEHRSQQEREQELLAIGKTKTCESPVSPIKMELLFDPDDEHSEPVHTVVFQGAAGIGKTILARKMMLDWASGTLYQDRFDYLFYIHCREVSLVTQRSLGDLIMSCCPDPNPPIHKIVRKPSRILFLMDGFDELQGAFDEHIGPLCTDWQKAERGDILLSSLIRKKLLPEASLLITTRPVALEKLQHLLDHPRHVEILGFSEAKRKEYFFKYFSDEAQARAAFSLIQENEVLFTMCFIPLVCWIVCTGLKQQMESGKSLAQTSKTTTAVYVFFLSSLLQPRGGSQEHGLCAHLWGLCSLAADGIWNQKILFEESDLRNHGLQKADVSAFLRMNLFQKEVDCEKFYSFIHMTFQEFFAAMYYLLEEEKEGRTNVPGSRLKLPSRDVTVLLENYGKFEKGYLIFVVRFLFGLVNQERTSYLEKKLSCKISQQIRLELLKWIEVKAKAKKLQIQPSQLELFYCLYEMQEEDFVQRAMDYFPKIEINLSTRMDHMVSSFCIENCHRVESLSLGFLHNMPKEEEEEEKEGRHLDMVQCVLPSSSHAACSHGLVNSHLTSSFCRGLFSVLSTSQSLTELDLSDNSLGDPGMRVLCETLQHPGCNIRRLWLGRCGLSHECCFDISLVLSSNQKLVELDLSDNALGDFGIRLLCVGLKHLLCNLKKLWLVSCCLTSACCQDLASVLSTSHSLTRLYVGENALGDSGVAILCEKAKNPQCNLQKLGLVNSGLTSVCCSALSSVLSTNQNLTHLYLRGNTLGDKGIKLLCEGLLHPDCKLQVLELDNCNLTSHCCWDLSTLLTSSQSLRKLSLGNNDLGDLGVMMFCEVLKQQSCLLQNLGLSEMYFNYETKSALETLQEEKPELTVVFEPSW

In the case of `CC(C)(O)CNc1nnc(-c2ccc(Cl)cc2C(F)(F)F)c2ccncc12` [VEN-02XX], the water consumption result in the data set on 5XFAD/Rubicon KO mice [1] (6 and 9 weeks, sucrose preference test) was “no changes in water consumption”. Further, the “sucrose preference (anhedonia)” value in the data set with 5XFAD/Rubicon KO mice [1] (6 weeks post-dose initiation, 20 mg/kg PO QD) is reported as “significant improvement”. In addition, in the data set on 5XFAD/Rubicon KO mice [1] (6 weeks post-dose initiation, lower doses (0.01, 1 mg/kg) PO QD), the “sucrose preference (anhedonia)” value is “trending reversal in the pre-dosing anhedonia”. Besides, the “sucrose preference (anhedonia)” value in the data set with 5XFAD/Rubicon KO mice [1] (9 weeks, 1 mg/kg and 20 mg/kg PO QD, dose-dependent) is reported as “significant improvements”. In addition, in the data set with 5XFAD/Rubicon KO mice [2], the “MAP2 expression (immunoblot, normalized to vinculin)” value was “improved MAP2 levels” and the “NeuN protein expression (immunoblot, normalized to vinculin)” value is given as “consistent improvements in overall NeuN protein expression”. The molecule further gave a Kd on human NLRP3 (human NLRP3) of 93.3 nM. For the same molecule, at human NLRP3 (human NLRP3, read-out: residence time (1/kd) (converted)), the residence time is 12.9 min. The kon at human NLRP3 (pH 7.5, 1:1 binding, read-out: ka) was found to be 13800 M⁻¹ s⁻¹. Besides, the “NLRP3 inhibitory activity maintained by exposure” value in data set [3] (20 mg/kg PO once daily, 7 days) was “sufficient to maintain a 50% inhibitory activity of NLRP3 throughout the dosing schedule”. Moreover, in data set [3] (setting [4]), the AUC(0-inf) is 143 µM·h, the Cmax was 20.7 µM, the Tmax came out at 1 h and the half-life was 3.16 h.
